From patent US11358957B2, “Microbiocidal oxadiazole derivatives” (SYNGENTA PARTICIPATIONS AG, priority 2017, dated 2022)

Legend:
[1] = test system: Puccinia recondita f. Sp. Tritici; assay: Fungicidal activity against Puccinia recondita f. sp. tritici / wheat / leaf disc curative (brown rust); assay type: in vivo; settings: foliar, 24 h, 200 ppm in the applied formulation, wheat leaf segments cv. Kanzler, curative (applied 1 day after inoculation), compared to untreated, read-out: disease control
Method in brief: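 Wheat leaf segments (cv. Kanzler) on agar were inoculated with brown rust spores, kept dark at 19 °C and 75% RH, then sprayed 1 day later with compound (DMSO stock diluted in 0.025% Tween20). Under 12 h light/12 h dark at 19 °C, percent disease control versus untreated was scored 6–8 days after application; 200 ppm applied.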

[2] = test system: Puccinia recondita f. Sp. Tritici; assay: Fungicidal activity against Puccinia recondita f. sp. tritici / wheat / leaf disc preventative (brown rust); assay type: in vivo; settings: foliar, 200 ppm in the applied formulation, wheat leaf segments cv. Kanzler, preventative (inoculated 1 day after application), compared to untreated, read-out: disease control
Method in brief: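 Segments of wheat cv. Kanzler on water agar were sprayed with compound and inoculated with spores 1 day later. They were kept at 19 °C, 75% rh and 12 h light/12 h dark. Percent disease control versus untreated was scored 7–9 days after application; compounds were tested at 200 ppm.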

[3] = test system: Glomerella lagenarium (Colletotrichum lagenarium); assay: Fungicidal activity against Glomerella lagenarium (Colletotrichum lagenarium) liquid culture / cucumber / preventative (anthracnose); assay type: cell-based; settings: Colletotrichum orbiculare; 20 ppm in the applied formulation; liquid culture (PDB), inhibition of growth measured photometrically 3 to 4 days after application; compared to untreated; read-out: disease control
Method in brief: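 Conidia from cryogenic storage mixed into potato dextrose broth and added to compound in DMSO in microtiter plates. Incubated at 24° C.; growth inhibition read photometrically 3 to 4 days after application. Disease control expressed relative to untreated control, with compound at 20 ppm in the applied formulation.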

[4] = test system: Phakopsora pachyrhizi; assay: Fungicidal activity against Phakopsora pachyrhizi / soybean / leaf disc preventative (Asian soybean rust); assay type: in vivo; settings: foliar, 200 ppm in the applied formulation, soybean leaf disks, compared to untreated, read-out: disease control
Protocol: Leaf disks or leaf segments of various plant species are cut from plants grown in a greenhouse. The cut leaf disks or segments are placed in multiwell plates (24-well format) onto water agar. The leaf disks are sprayed with a test solution before (preventative) or after (curative) inoculation. Compounds to be tested are prepared as DMSO solutions (max. 10 mg/mL) which are diluted to the appropriate concentration with 0.025% Tween20 just before spraying. The inoculated leaf disks or segments are incubated under defined conditions (temperature, relative humidity, light, etc.) according to the respective test system. A single evaluation of disease level is carried out 3 to 14 days after inoculation, depending on the pathosystem. Percent disease control relative to the untreated check leaf disks or segments is then calculated. Soybean leaf disks are placed on water agar in multiwell plates (24-well format) and sprayed with the formulated test compound diluted in water. One day after application leaf discs are inoculated by spraying a spore suspension on the lower leaf surface. After an incubation period in a climate cabinet of 24-36 hours in darkness at 20° C. and 75% rh leaf disc are kept at 20° C. with 12 h light/day and 75% rh. The activity of a compound is assessed as percent disease control compared to untreated when an appropriate level of disease damage appears in untreated check leaf disks (12 to 14 days after application). The following compounds at 200 ppm in the applied formulation give at least 80% disease control in this test when compared to untreated control leaf disks under the same conditions, which show extensive disease development.

Row | Structure (SMILES) | melting point | pest or weed control at 200 ppm [1] | pest or weed control at 200 ppm [2] | inhibition of growth at 20 ppm [3] | pest or weed control at 200 ppm [4]
1 | COCCNC(=O)c1cnn(Cc2ccc(-c3noc(C(F)(F)F)n3)s2)c1 [Compound 1.39, N-(2-methoxyethyl)-1-[[5-[5-(trifluoromethyl)-1,2,4-oxadiazol-3-yl]-2-thienyl]methyl]pyrazole-4-carboxamide] | 135.3 to 137.9 °C | ≥ 80% | ≥ 80% | ≥ 80% | ≥ 80%
2 | CCOC(=O)c1ncn(Cc2ccc(-c3noc(C(F)(F)F)n3)s2)n1 [Compound 1.40, ethyl 1-[[5-[5-(trifluoromethyl)-1,2,4-oxadiazol-3-yl]-2-thienyl]methyl]-1,2,4-triazole-3-carboxylate] | 136 to 140 °C | ≥ 80% | ≥ 80% | ≥ 80% | ≥ 80%
3 | CCCOC(=O)c1ncn(Cc2ccc(-c3noc(C(F)(F)F)n3)s2)n1 [Compound 1.43, propyl 1-[[5-[5-(trifluoromethyl)-1,2,4-oxadiazol-3-yl]-2-thienyl]methyl]-1,2,4-triazole-3-carboxylate] | 140 to 160 °C | ≥ 80% | ≥ 80% | ≥ 80% | ≥ 80%
4 | CNC(=O)c1ncnn1Cc1ccc(-c2noc(C(F)(F)F)n2)s1 [Compound 1.48, N-methyl-2-[[5-[5-(trifluoromethyl)-1,2,4-oxadiazol-3-yl]-2-thienyl]methyl]-1,2,4-triazole-3-carboxamide] | 132 to 140 °C | ≥ 80% | ≥ 80% | ≥ 80% | ≥ 80%
5 | CONC(=O)c1ncn(Cc2ccc(-c3noc(C(F)(F)F)n3)s2)n1 [Compound 1.59, N-methoxy-1-[[5-[5-(trifluoromethyl)-1,2,4-oxadiazol-3-yl]-2-thienyl]methyl]-1,2,4-triazole-3-carboxamide] | 168 to 178 °C | ≥ 80% | ≥ 80% | ≥ 80% | ≥ 80%
6 | CONC(=O)c1ccnn1Cc1ccc(-c2noc(C(F)(F)F)n2)s1 [Compound 1.60, N-methoxy-2-[[5-[5-(trifluoromethyl)-1,2,4-oxadiazol-3-yl]-2-thienyl]methyl]pyrazole-3-carboxamide] | 105 to 115 °C | ≥ 80% | ≥ 80% | ≥ 80% | ≥ 80%

The next lines start with results.

Row | melting point | Structure (SMILES) | pest or weed control at 200 ppm [1] | pest or weed control at 200 ppm [2] | inhibition of growth at 20 ppm [3] | pest or weed control at 200 ppm [4]
7 | 150.8 to 155.7 °C | CNC(=O)c1cnn(Cc2ccc(-c3noc(C(F)(F)F)n3)s2)c1 [Compound 1.38, N-methyl-1-[[5-[5-(trifluoromethyl)-1,2,4-oxadiazol-3-yl]-2-thienyl]methyl]pyrazole-4-carboxamide] | ≥ 80% | ≥ 80% | ≥ 80% | ≥ 80%
8 | 120 to 124 °C | CCOC(=O)c1ccn(Cc2ccc(-c3noc(C(F)(F)F)n3)s2)n1 [Compound 1.42, ethyl 1-[[5-[5-(trifluoromethyl)-1,2,4-oxadiazol-3-yl]-2-thienyl]methyl]pyrazole-3-carboxylate] | ≥ 80% | ≥ 80% | ≥ 80% | ≥ 80%
9 | 88 to 94 °C | CCCOC(=O)c1ccn(Cc2ccc(-c3noc(C(F)(F)F)n3)s2)n1 [Compound 1.46, propyl 1-[[5-[5-(trifluoromethyl)-1,2,4-oxadiazol-3-yl]-2-thienyl]methyl]pyrazole-3-carboxylate] | ≥ 80% | ≥ 80% | ≥ 80% | ≥ 80%
10 | 198 to 218 °C | CNC(=O)c1ncn(Cc2ccc(-c3noc(C(F)(F)F)n3)s2)n1 [Compound 1.49, N-methyl-1-[[5-[5-(trifluoromethyl)-1,2,4-oxadiazol-3-yl]-2-thienyl]methyl]-1,2,4-triazole-3-carboxamide] | ≥ 80% | ≥ 80% | ≥ 80% | ≥ 80%
11 | 124 to 126 °C | CNC(=O)c1ccn(Cc2ccc(-c3noc(C(F)(F)F)n3)s2)n1 [Compound 1.51, N-methyl-1-[[5-[5-(trifluoromethyl)-1,2,4-oxadiazol-3-yl]-2-thienyl]methyl]pyrazole-3-carboxamide] | ≥ 80% | ≥ 80% | ≥ 80% | ≥ 80%
12 | 148 to 151 °C | CNC(=O)c1ccnn1Cc1ccc(-c2noc(C(F)(F)F)n2)s1 [Compound 1.52, N-methyl-2-[[5-[5-(trifluoromethyl)-1,2,4-oxadiazol-3-yl]-2-thienyl]methyl]pyrazole-3-carboxamide] | ≥ 80% | ≥ 80% | ≥ 80% | ≥ 80%
13 | 134 to 141 °C | CONC(=O)c1ccn(Cc2ccc(-c3noc(C(F)(F)F)n3)s2)n1 [Compound 1.56, N-methoxy-1-[[5-[5-(trifluoromethyl)-1,2,4-oxadiazol-3-yl]-2-thienyl]methyl]pyrazole-3-carboxamide] | ≥ 80% | ≥ 80% | ≥ 80% | ≥ 80%
14 | 90 to 96 °C | CN(C)C(=O)c1ccn(Cc2ccc(-c3noc(C(F)(F)F)n3)s2)n1 [Compound 1.57, N,N-dimethyl-1-[[5-[5-(trifluoromethyl)-1,2,4-oxadiazol-3-yl]-2-thienyl]methyl]pyrazole-3-carboxamide] | ≥ 80% | ≥ 80% | ≥ 80% | ≥ 80%
